# Assay results published in US20070060615A1, “Method of Modulating Apoptosis Through Modulation of E2F1” (University of South Florida, priority 2003, published 2007).
# Assays:
# [1] = tested on: H1299 lung carcinoma cells; assay: Apoptosis by Apo-BrdUrd incorporation in H1299 cells; assay type: cell-based, human
# Protocol: (§1) The H1299 non-small cell lung cancer line are grown in DMEM supplemented with 2 mM L-glutamine (Life Technologies, Inc.), 5% fetal bovine serum (Hyclone), and 1% penicillin/streptomycin (Life Technologies, Inc.). NIH3T3 cells constitutively expressing human Mcl-1 were created by transfecting cells with pcDNA-3-Mcl-1 and selecting for transformants in the presence of 400 μg/ml G418. Mouse embryo fibroblasts from E2F1-null animals were grown in DMEM with 15% fetal bovine serum and 1% penicillin/streptomycin. […] The drug was diluted directly into the medium to indicated concentrations followed by incubation at 37° C. Untreated cells and cells treated with DMSO alone behaved identically.
# (§2) Apoptosis was assayed using PharMingen “APO-BrdU” kit without modification. After treatment with flavopiridol, cells were trypsinized and resuspended in PBS. Cells were counted and 1-2×10^6 cells were fixed in 1% paraformaldehyde in PBS on ice, pelleted, washed twice in PBS, and fixed with ice-cold 70% ethanol overnight. The next day, cells were pelleted, resuspended, and washed with wash buffer. Pelleted cells were resuspended with reaction buffer, TdT enzyme, and bromo-dUTP for 1 hour at 37° C. Cells were subsequently rinsed with 1.0 ml of PBS and resuspended with fluorescein-labeled anti-BrdUrd in the dark for 30 min at room temperature. Propidium iodide and RNase were added, and the cells were incubated for 30 min. One×10^4 cells per experimental condition were analyzed for fluorescence on a Becton-Dickinson FACScan using Cell Quest software.
# [2] = tested on: H1299 cells lacking E2F1 protein; assay: Apoptosis by Apo-BrdUrd in E2F1 knockdown H1299 cells; assay type: cell-based, human; conditions: 200 nM, 48 and 72 h, FIG. 6B
# Protocol: (§3) To generate E2F1 knockdown cell lines H1299 cells were transfected by the calcium phosphate method either with empty BS/U6 RNAi vector or with BS/U6-E2F1 RNAi vector together with pcDNA-3, which encodes a neomycin-selectable marker. Forty-eight hours after transfection, cells were split and cultured in medium containing 400 μg/ml G418. Colonies that emerged from G418 selection were propagated and screened for E2F1 expression by Western blot. Several lines were isolated that had reduced E2F1 expression; the most efficient knockdown cell line, H1299-E2F1RNAi-16, was further characterized. A matching H1299-pBS/U6 cell line was generated in the same way.
# (§4) Apoptosis was assayed using PharMingen “APO-BrdU” kit without modification. After treatment with flavopiridol, cells were trypsinized and resuspended in PBS. Cells were counted and 1-2×10^6 cells were fixed in 1% paraformaldehyde in PBS on ice, pelleted, washed twice in PBS, and fixed with ice-cold 70% ethanol overnight. The next day, cells were pelleted, resuspended, and washed with wash buffer. Pelleted cells were resuspended with reaction buffer, TdT enzyme, and bromo-dUTP for 1 hour at 37° C. […] One×10^4 cells per experimental condition were analyzed for fluorescence on a Becton-Dickinson FACScan using Cell Quest software.
# [3] = tested on: E2F1; assay: Western blot of E2F1 in H1299 cells; assay type: cell-based, human
# Protocol: as §1, with “identically. Cell lysates were normalized for total protein content (50 μg) and subjected to SDS-PAGE as described previously. Primary antibodies used in these studies consisted of E2F1 (SantaCruz Biotechnology; SC-251), Mcl-1 (Santa Cruz; SC-819), Rb (PharMingen; 14031A), Flag (Sigma; F-3615) and β-actin (Sigma; A5441). Detection of proteins was accomplished using horseradish-peroxidase-conjugated secondary antibodies and enhanced chemiluminescence (ECL) purchased through Amersham. Northern blots were performed as described previously.” for “identically.”
# [4] = tested on: wild-type NIH3T3 cells; assay: Apoptosis by Apo-BrdUrd in wild-type NIH3T3 cells; assay type: cell-based, murine; conditions: 200 nM, 48 and 72 hours, FIG. 5C
# Protocol: as §2
# [5] = tested on: Bcl-2; assay: Western blot of Bcl-2 in H1299 cells; assay type: cell-based, human; conditions: H1299, 200 nM
# [6] = tested on: H1299-Mcl-1-11 and H1299-Mcl-1-13 cells; assay: Apoptosis by Apo-BrdUrd in H1299 cells stably expressing human Mcl-1; assay type: cell-based; conditions: 200 nM, 48, 72 and 96 hours, FIG. 4B
# Protocol: H1299 cells lines, constitutively expressing human Mcl-1 under control of the CMV promoter, were obtained by transfecting cells with pcDNA3 or pcDNA3-Mcl-1 and selecting for transformants by growth in 400 μg/ml G418. G418-resistant lines were screened for expression of human Mcl-1. Two Mcl-1-positive cell lines emerged and were characterized. A matching G418-resistant H1299-pcDNA3 cell line was generated in the same way. Apoptosis was assayed using PharMingen “APO-BrdU” kit without modification. After treatment with flavopiridol, cells were trypsinized and resuspended in PBS. Cells were counted and 1-2×10^6 cells were fixed in 1% paraformaldehyde in PBS on ice, pelleted, washed twice in PBS, and fixed with ice-cold 70% ethanol overnight. The next day, cells were pelleted, resuspended, and washed with wash buffer. Pelleted cells were resuspended with reaction buffer, TdT enzyme, and bromo-dUTP for 1 hour at 37° C. Cells were subsequently rinsed with 1.0 ml of PBS and resuspended with fluorescein-labeled anti-BrdUrd in the dark for 30 min at room temperature. Propidium iodide and RNase were added, and the cells were incubated for 30 min. One×10^4 cells per experimental condition were analyzed for fluorescence on a Becton-Dickinson FACScan using Cell Quest software.
# [7] = tested on: human Mcl-1; assay: Western blot of Mcl-1 in NIH3T3 cells stably expressing human Mcl-1; assay type: cell-based, murine; conditions: 200 nM, up to 72 hours, FIG. 5A
# Protocol: as §1, with “identically. Cell lysates were normalized for total protein content (50 μg) and subjected to SDS-PAGE as described previously. Primary antibodies used in these studies consisted of E2F1 (SantaCruz Biotechnology; SC-251), Mcl-1 (Santa Cruz; SC-819), Rb (PharMingen; 14031A), Flag (Sigma; F-3615) and β-actin (Sigma; A5441). Detection of proteins was accomplished using horseradish-peroxidase-conjugated secondary antibodies and enhanced chemiluminescence (ECL) purchased through Amersham. Northern blots were performed as described previously.” for “identically.”
# [8] = tested on: Mcl-1; assay: Western blot of Mcl-1 in H1299 cells; assay type: cell-based, human
# Protocol: as §1, with “identically. Cell lysates were normalized for total protein content (50 μg) and subjected to SDS-PAGE as described previously. Primary antibodies used in these studies consisted of E2F1 (SantaCruz Biotechnology; SC-251), Mcl-1 (Santa Cruz; SC-819), Rb (PharMingen; 14031A), Flag (Sigma; F-3615) and β-actin (Sigma; A5441). Detection of proteins was accomplished using horseradish-peroxidase-conjugated secondary antibodies and enhanced chemiluminescence (ECL) purchased through Amersham. Northern blots were performed as described previously.” for “identically.”
# [9] = tested on: NIH3T3 cells stably expressing human Mcl-1; assay: Apoptosis by Apo-BrdUrd in NIH3T3 cells stably expressing Mcl-1; assay type: cell-based, murine; conditions: 200 nM, 72 hours, FIG. 5C
# Protocol: as §1, §4
# [10] = tested on: Bok; assay: Western blot of Bok in H1299 cells; assay type: cell-based, human; conditions: H1299, 200 nM
# [11] = tested on: E2F1 null mouse embryo fibroblasts; assay: Apoptosis by Apo-BrdUrd in E2F1 null mouse embryo fibroblasts; assay type: cell-based; conditions: 200 nM, 72 hours, FIG. 6C
# Protocol: as §1, §4
# [12] = tested on: Mcl-1 mRNA; assay: Northern blot of endogenous Mcl-1 mRNA in wild-type NIH3T3 cells; assay type: cell-based, murine; conditions: wild-type 3T3 cells, total RNA, FIG. 5B
# Protocol: (§5) Cell lysates were normalized for total protein content (50 μg) and subjected to SDS-PAGE as described previously. Primary antibodies used in these studies consisted of E2F1 (SantaCruz Biotechnology; SC-251), Mcl-1 (Santa Cruz; SC-819), Rb (PharMingen; 14031A), Flag (Sigma; F-3615) and β-actin (Sigma; A5441). Detection of proteins was accomplished using horseradish-peroxidase-conjugated secondary antibodies and enhanced chemiluminescence (ECL) purchased through Amersham. Northern blots were performed as described previously.
# [13] = tested on: Mcl-1; assay: Western blot of Mcl-1 in E2F1 knockdown H1299 cells; assay type: cell-based, human; conditions: E2F1 knockdown H1299, 8 hours, FIG. 6A
# Protocol: as §3, §5
# [14] = tested on: Rb; assay: Rb Western blot (Rb phosphorylation) in H1299 cells; assay type: cell-based, human; conditions: H1299, 200 nM, time course FIG. 3A
# Protocol: as §5
# [15] = H1299, 200 nM, 12 hours, extended time course FIG. 3A
# [16] = H1299, increasing doses, 48 hours, FIG. 1A
smiles,measurement,setting,value
CN1CC[C@H](c2c(O)cc(O)c3c(=O)cc(-c4ccccc4Cl)oc23)[C@H](O)C1 [flavopiridol],Apoptosis after 48 and 72 hours,"[1]; H1299, 200 nM, 48 and 72 hours, FIG. 3B",larger degrees of apoptosis
same,Apoptosis after 24 hours,"[1]; H1299, 200 nM, 24 hours, FIG. 3B",Minimal levels of apoptosis
same,Apoptosis at 36 hours,"[1]; H1299, 200 nM, 36 hours, FIG. 3B",apoptosis was evident
same,Apoptosis at times <18 hours,"[1]; H1299, 200 nM, <18 hours, FIG. 2B",minimal effect on apoptosis
same,"Apoptosis (Apo-BrdUrd incorporation), dose response","[1]; H1299, 48 hours of treatment, FIG. 1B","minimal elevations in apoptosis, as measured by Apo-BrdUrd incorporation, are seen until a dose of 200 nM was reached"
same,Apoptosis in H1299 cells lacking E2F1 compared with empty RNAi vector cells,[2],less sensitive to flavopiridol-induced cell death
same,E2F1 levels after 12 hours,[3]; [15],E2F1 levels had risen
same,E2F1 levels after 72 hours,"[3]; H1299, 200 nM, 72 hours, FIG. 3A",E2F1 levels fell
same,Time after which E2F1 levels reached a plateau,"[3]; H1299, 200 nM, FIG. 2A",9 h
same,Time after which increases in E2F1 protein are apparent,"[3]; H1299, 200 nM, FIG. 2A",3 h
same,"E2F1 protein levels, dose response",[3]; [16],markedly elevated starting at the 100-nM dose
same,Apoptosis in wild-type NIH3T3 (pcDNA3 alone),[4],undergoes apoptosis starting after 48 hours but is more pronounced after 72 hours of treatment
same,Bcl-2 levels,[5],No changes
same,Apoptosis in stably transfected Mcl-1 clones compared with control cells,[6],resistant to apoptosis induced by flavopiridol
same,Human Mcl-1 protein levels in stably transfected NIH3T3 cells,[7],no changes are seen in the levels of Mcl-1
same,Mcl-1 protein levels at 200 nM and higher doses,"[8]; H1299, 200 nM and higher, 48 hours, FIG. 1A",undetectable
same,Mcl-1 levels after 12 hours,[8]; [15],undetectable
same,Mcl-1 levels by 36 hours,"[8]; H1299, 200 nM, 36 hours, FIG. 3A",Low levels of Mcl-1 were apparent
same,Time after which Mcl-1 levels began to fall,"[8]; H1299, 200 nM, FIG. 2A",3 h
same,Time after which Mcl-1 levels were maximally reduced,"[8]; H1299, 200 nM, FIG. 2A",12 h
same,"Mcl-1 protein levels, dose response",[8]; [16],significantly reduced starting at the 100-nM dose
same,Apoptosis in NIH3T3 stably expressing Mcl-1,[9],minimal increases in apoptosis
same,Bok levels,[10],No changes
same,Apoptosis in mouse embryo fibroblast lines lacking E2F1 compared with wild-type littermates,[11],less sensitive to flavopiridol-induced cell death
same,Time within which endogenous Mcl-1 levels are reduced,[12],≤ 6 h
same,Mcl-1 protein levels in H1299 cells lacking E2F1,[13],decreased in a manner identical to that of the control cells
same,Rb phosphorylation,[14],no changes in Rb phosphorylation
